The results in this text go back to ChEMBL document CHEMBL4823329, “Trisubstituted 1,3,5-Triazines: The First Ligands of the sY12-Binding Pocket on Chemokine CXCL12” (ACS Med Chem Lett, 2021).

Structures are written as SMILES. pKd: −log10 of the molar value.

In one assay the target is Stromal cell-derived factor 1 (Homo sapiens, UniProt P48061). Briefly: Binding affinity to wild type CXCL12 (unknown origin) by NMR spectroscopy.
Chain of Stromal cell-derived factor 1 (P48061 whole entry): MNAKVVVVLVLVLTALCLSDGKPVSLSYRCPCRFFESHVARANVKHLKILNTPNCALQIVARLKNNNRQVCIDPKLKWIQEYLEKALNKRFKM
Details: not given; call rule not given here
Turning to `O=C(O)CSc1nc(SCC(=O)O)nc(-c2ccoc2)n1`, the Kd result is “Nd(Insoluble)”.
The same measure, in the same setting: with `O=C(O)c1ccc(Nc2nc(Nc3ccc(C(=O)O)cc3)nc(-c3ccccc3)n2)cc1` the entry was “Nd(Insoluble)”; with `O=C(O)CSc1nc(SCC(=O)O)nc(C2=CCCCC2)n1`, “Nd(Insoluble)”; with `O=C(O)CSc1nc(SCC(=O)O)nc(C2C3CC4CC(C3)CC2C4)n1` (stereo unspecified), “Not Active”.
As for `O=C(O)CSc1nc(SCC(=O)O)nc(-c2ccc(Oc3ccccc3)cc2)n1`, the Kd entry is “Nd(Insoluble)”.
The same measure, in the same setting: with `O=C(O)CSc1nc(SCC(=O)O)nc(-c2c3ccccc3cc3ccccc23)n1` the entry was “Not Active”; with `O=C(O)CSc1nc(SCC(=O)O)nc(-c2cnc3ccccc3c2)n1`, “Nd(Insoluble)”.
For the molecule `O=C(O)CSc1nc(SCC(=O)O)nc(-c2ccc(-c3ccccc3)cc2)n1`, the Kd entry was “Nd(Insoluble)”.

Still in this assay, the particulars now being: read-out: Kd.
With `O=C(O)CSc1nc(SCC(=O)O)nc(-c2ccc(N3CCOCC3)cc2)n1`, the pKd was 3.51.
Turning to `C[N+]1(c2nc(SCC(=O)O)nc(SCC(=O)O)n2)CCOCC1`, the pKd was 2.52.
On the same count and under the same terms, with `O=C(O)CSc1nc(SCC(=O)O)nc(N2CCOCC2)n1` the figure was 3.63.

As usually defined, the pKd is −log10 of the Kd, conventionally taken in molar units.
